Data as given in US8906931B1, “9-[4-(3-chloro-2-fluoro-phenylamino-7-methoxy-quinazoline-6-yloxy]-1,4-diaza-spiro[5.5]undecane-5-one dimaleate, use thereof as a medicament and method for the production thereof” (Boehringer Ingelheim International GmbH, priority 2011, dated 2014).

Test: Water sorption test (DVS, hygroscopicity)
Assay type: physicochemical
Details: humidity range of 10-90% r.h.
Procedure: By low hygroscopicity is meant, within the scope of the present invention, that in sorption experiments on the compound of formula (I) a water uptake of less than 1% is observed in the humidity range of 10-90% investigated.
A DVS-1 made by Surface Measurement Systems (=SMS) is used to test the hygroscopic characteristics: the following humidity profiles are used: 10-90% r.h. in 10% steps, recording both a sorption and a desorption profile, typical weights: 10-20 mg

water uptake in sorption experiments: less than 1%
Compound: COc1cc2ncnc(Nc3cccc(Cl)c3F)c2cc1O[C@H]1CC[C@@]2(CC1)NCCNC2=O.O=C(O)/C=C\C(=O)O.O=C(O)/C=C\C(=O)O [(I), (trans)-9-[4-(3-chloro-2-fluoro-phenylamino)-7-methoxy-quinazolin-6-yloxy]-1,4-diaza-spiro[5.5]undecan-5-one dimaleic acid compound]
